One assay has as its system LXR signaling pathway. Nature of the assay: Western blot of LXR and its target genes and PCNA in mouse liver (Example 3). The format is in vivo, C57BL/6 mice. Particulars: 5 mg/kg i.v. On the procedure:
Cayman Chemical, Ann Arbor, Mich.); […] […] Metabolism. (Accepted)]. […] Cell lysates were prepared from frozen mouse liver tissues. Total proteins, 100 μg, were separated by 10% SDS-PAGE, and transferred to PVDF membrane (Millipore, Eschbom, Germany). […] Louis, Mo.) was used as a loading control. The immunoreactive bands were detected by Fujifilm Medical System (Fujifilm, Stamford, Conn.) and quantified by Advanced Image Data Analyzer (Aida Inc., Straubenhardt, Germany).
Background: Immunoblotting shows a protein as a band on a membrane.

The subject of assay [1] is primary rat hepatocytes (PRH). Nature of the assay: Western blot in primary rat hepatocytes (Example 4). The format is cell-based. Particulars: Ad-Control-infected group, T0901317 1.5 μM or 25HC 3 μM. On the procedure: PRH were prepared as previously described (24). Briefly, parenchymal cells (3.5×10^6) were inoculated in 60-mm plastic Petri dishes coated with rat tail collagen. The plates contained 3 ml of Williams E culture media supplemented with thyroxine (1 μM), dexamethasone (0.1 μM), and penicillin (100 units/ml). Three hours after plating, culture medium was removed and fresh medium was added. Cells were then infected with Ad-SULT2B1b at a multiplicity (MOI) of 10 plaque forming units/cell (pfu/cell) or 100 nM of siRNA-SULT2B1b (ON-TARGET plus siRNA of rat SULT2B1b, Thermo Scientific Dharmacon, Lafayette, Colo.) as previously described (31). The Ad-Control and siRNA-Control (ON-TARGET plus negative control siRNA) were used as controls, respectively. Twenty four hours after infection, cells were treated with T0901317 (1.5 μM) or 25HC (3 μM) for another 24 hours. The cells were harvested at the timepoints as indicated in the text.
Cell lysates were prepared from frozen mouse liver tissues or PRH, and 50 μg of the total proteins were separated by 10% SDS-PAGE, transferred to polyvinylidene difluoride membrane (Millipore, Eschbom, Germany). Specific protein was probed with specific antibodies against PCNA, human SULT2B1b (Santa Cruz Biotechnology, Santa Cruz, Calif.), LXRα (Abcam, Cambridge, Mass.), ATP-binding cassette transporters 1 (ABCA1) (Abcam, Cambridge, Mass.), and SREBP1 (Santa Cruz Biotechnology, Santa Cruz, Calif.). β-Actin (Sigma-Aldrich, St. Louis, Mo.) was used as a loading control. Western analysis was performed by methods known in the art.

Turning to `O=S(=O)(c1ccccc1)N(CC(F)(F)F)c1ccc(C(O)(C(F)(F)F)C(F)(F)F)cc1` [T0901317, reference compound], the “25HC3S-induced PCNA expression” value in the assay with LXR signaling pathway (day 2) was “significantly repressed”. Besides, the “expressions of LXR target genes ABCA1 and SREBP-1c” value in the assay on LXR signaling pathway (day 2, presence and absence of 25HC3S, vs vehicle) was “induced”. Also, in assay [1], the “LXR response gene expressions” value was “significantly increased” and the PCNA expression result is “decreased”.

Source of the values: patent publication US9034859B2, “Sulfated oxysterol and oxysterol sulfation by hydroxysterol sulfotransferase promote lipid homeostasis and liver proliferation” (Virginia Commonwealth University, priority 2011, dated 2015).
